The values below come from patent US9937230B2, “Ophthalmic uses of toxin-based therapeutic peptides and pharmaceutical compositions thereof” (Kineta One, LLC, priority 2013, dated 2018).

For data set [1], the system named is unstimulated or activated T cells or macrophages from dry-eye or uveitis patients. Briefly: Ex vivo cytokine expression in T cells or macrophages from dry eye or uveitis patients. It counts as cell-based, human. Particulars: ex vivo addition of ShK-186, intracellular staining/flow cytometry or multiplexing ELISA. An excerpt: (§1) In order to carry out functional assays, PBMCs from uveitis or dry eye patients and healthy controls are isolated. In the first phase of the example, the cells are either tested shortly after […] without ex vivo stimulation or activated ex vivo with anti-CD3 and anti-CD28 antibodies or mitogens and then subjected to immunostaining and multicolor flow cytometry to study expression levels of Kv1.3 channel on the surface of TEM within the CD4 and CD8+ T-cell subsets. Cells isolated from patients are expected to be high in expression of Kv1.3 without stimulation ex vivo, but this expression could increase upon activation ex vivo. […] Cytokines including IFN-γ, IL-2, IL-4, IL-10, IL-17, IL-21, and IL-22, perforin, and granzyme B are detected by intracellular staining and flow cytometry in resting or activated cells in the presence or absence of toxin-based therapeutic peptide. Additionally, they can be quantitated by an assay such as multiplexing ELISA of collected supernatants. […] This reduction can be measured by quantification of [^3H] thymidine incorporation or the fluorescent dye CFSE, among other standard immunological methods.
Background: A flow cytometer gives signals particle by particle.

The nature of data set [2]: Local (eye) and systemic (plasma) drug levels after topical ocular administration, Sprague-Dawley rats, ELISA. It counts as in vivo, rat. As for the experimental part: Three female 6-8 week old Sprague-Dawley rats (Indianapolis, Ind., USA) were dosed three times per day with topically administered 10 μL of P6N (sodium phosphate (10 mM), sodium chloride (0.8%), and Polysorbate 20 (0.05%) at pH 6.0) on the left eye (LE) and 10 μL of 0.5% ShK-186 in P6N on the right eye (RE) for 21 days. Blood was collected at 3, 7, 12, 14, 17, and 21 days and processed to plasma. […] ShK-186 levels in collected samples were measured using a standard direct ELISA method.

Data set [3] has as its system rat model of experimental autoimmune anterior uveitis (EAAU). The data set can be described thus: Melanin associated antigen (MAA) induced experimental autoimmune anterior uveitis (EAAU) model. The format is in vivo. An excerpt: One model used to evaluate the therapeutic potential of ShK-186 in autoimmune eye diseases such as uveitis was the melanin associated antigen (MAA) induced experimental autoimmune anterior uveitis (EAAU). In this model, male Lewis rats 5-10 week old (Charles River) are immunized with MAA emulsified in complete Freund's adjuvant (CFA) subcutaneously and also receive a single intraperitoneal injection of pertussis toxin (0.2 to 1 mcg/animal). Symptoms of disease begin to appear by day 10 and peak by day 18 post immunization. The animals typically recover by day 25.
Preparation of the MAA. MAA was prepared following the procedure outlined by Simpsom et al., Eye 11, 206-208, (1997) with some modifications. The iris and ciliary body structure were dissected from 25 fresh pigmented cow eyes. The tissue was cut into small pieces and then homogenized in cold PBS. The homogenate was spun at 4000 g for 10 minutes, washed three times with PBS and then put through a detergent extraction with 2% Triton X-100, rotating for 3 hours at room temperature. The resulting material was again spun and washed three times with PBS and subject to another detergent extraction this time using 2% SDS, rotating for 3 hours at 37° C. This material was washed three times with PBS followed by three washes with H2O and a final wash with 70% ethanol. The MAA pellet was placed under a vacuum for approximately 15 min, resulting in dried antigen material stored frozen at −20° C.
Preparation of MAA:CFA emulsions. For the emulsion used for the experiment whose results are shown in FIG. 4, 50 milligrams of MAA were resuspended in 3.8 mL of PBS, and after vortexing briefly the suspension, was sonicated for 30 seconds three times incubating on ice for 30 seconds in between. This slurry was passed through a 100 μm cell strainer, thicker material was pressed through using a syringe plunger. The protein content of the suspension was determined to be 3.27 mg/mL using a commercially available BCA kit (Pierce 23225), and was stored frozen at −20° C. until use. On the day of immunization (day 0), the stock MAA was thawed at room temperature and vortexed briefly before a working dilution of 600 μg/mL was made. This solution was then mixed drop wise 1:1 with CFA while vortexing, for a final antigen concentration of 300 μg/mL (or 30 μg per animal). Emulsions were allowed to vortex an additional 5 minutes before being loaded into syringes and passed through an 18 G emulsifying bridge until very thick. Emulsions were injected the same day, 50 μL subcutaneous to each footpad, 100 μL total per animal, according to group. FIGS. 4A-D show the pathology associated with this disease model and the effects of ShK-186 topical administration on the occurrence and severity of disease.
Eyes were given individual scores based on pupil function (miosis), iris structure, presence of cells in the anterior chamber, and presence of protein in the anterior chamber (flare). Scores were then converted into a composite clinical score for each day.
For this analysis, sections of eyes previously fixed in 10% formalin were scored for iris and ciliary body structure and the degree of inflammatory cell infiltration to the stroma of the iris and/or ciliary body and anterior chamber according to disease parameters outlined by Kim et al., supra (1997); this was done by an independent veterinary pathologist. In FIG. 4C (1.) a control healthy eye (10×) is shown; (2.) & (4.) show the eye from an animal treated with vehicle that was scored a 2 (10×, 40×); (3.) & (5.) show the eye from an animal treated three times daily with 0.1% ShK-186 for 8 days followed by 1% ShK-186 for 10 days which was given a histopathology score of 0 (10×, 40×).
Clinical observations were made of each animal using a slit lamp on day 13 post induction of EAAU by immunization with an adjuvanted MAA emulsion. […]

Data set [4] has as its system T cells or macrophages from dry-eye or uveitis patients. The data set can be described thus: Ex vivo proliferation of T cells or macrophages during ex vivo activation. It counts as cell-based, human. Particulars: [3H] thymidine incorporation or CFSE.
Text: as §1
Background: Uptake of a labelled nucleoside into DNA is a usual measure of proliferation.

In data set [5] the test system is human whole blood stimulated with thapsigargin. The data set can be described thus: Suppression of thapsigargin-stimulated inflammatory cytokine production in human whole blood. The format is cell-based. Particulars: FIG. 1. An excerpt: (§2) This Example explores the ability of pharmaceutical compositions including toxin-based therapeutic peptides disclosed herein to reduce pro-inflammatory cytokine secretion caused by thapsigargin (Sigma-Aldrich, St. Louis, Mo., USA). Thapsigargin stimulates proinflammatory cytokine release by inhibiting the Ca2+ ion pump proteins of intracellular membranes in the sarcoplasmic reticulum and endoplasmic reticulum of microsomes. This inhibition results in a rapid release of Ca2+ stores and subsequent activation of plasma membrane calcium channels.
(§3) Preparation of primary blood cells. Whole blood and peripheral blood mononuclear cells (PBMCs) were used to test the suitability of an ShK-based therapeutic peptide as disclosed herein for treating a subject with an ophthalmic condition including dry eye. Whole blood was directly aliquoted to cell culture for experimental assays without any additional processing.
(§4) Treatment of primary blood cells. ShK-186 was serially diluted in cRPMI to 4× final concentration working stock. 50 μL of working stock was added to 6 wells of a 96-well cell culture plate per concentration of ShK-based peptide. 50 μL of cRPMI without ShK-based peptide was used as control treatment in positive control (no ShK-based peptide, thapsigargin stimulus) and in negative control (no ShK-based peptide, no thapsigargin stimulus) wells. 100 μL whole blood or 200,000 PBMCs in complete RPMI was added to each well of the 96-well cell culture plate. Cells with ShK-based peptide or media control were incubated at 37° C. and 5% CO2 for one hour. After one hour, 50 μL of 40 uM thapsigargin stimulus was added to all wells except for negative control wells which received 50 μL 0.4% DMSO to 0.1% final concentration. Cells were incubated for 48 hours.
(§5) Analysis of ShK-based peptide treated and thapsigargin stimulated cells. 48 hours after stimulation by thapsigargin, 96-well plates were centrifuged at 2000 RPM for 5 minutes. The supernatant was carefully transferred to a sterile 96-well plate for sample analysis. Cytokines were detected using specific antibodies conjugated to magnetic beads and a secondary antibody that reacts with Streptavidin/Phycoerythrin to produce a fluorescent signal. The bound beads were detected and quantified using the Magpix instrument (Luminex Corp., Austin, Tex., USA), although similar techniques as are known in the art may be used to measure protein production, such as for example an ELISA, using methods of detection including fluorescent and colorimetric methods.

For data set [6], the system named is human peripheral blood mononuclear cells (PBMCs) stimulated with thapsigargin. Briefly: Suppression of thapsigargin-stimulated inflammatory cytokine production in human PBMCs. It counts as cell-based. Particulars: FIG. 2.
Text: as §2, §3
PBMCs were isolated from donor blood by density gradient centrifugation as follows. Blood was collected in collection tubes containing sodium heparin as an anticoagulant and a cell separation medium including a polyester gel and a density gradient liquid (BD Vacutainer CPT). The samples were centrifuged at 1500 RCF for 20 minutes at room temperature. The cell layer containing mononuclear cells and platelets lies just below the plasma layer and was collected into a separate 15 mL conical tube using a Pasteur Pipette. The cells were washed twice with PBS and pelleted by centrifugation to remove the supernatant. The purified PBMCs were resuspended in complete RPMI (cRPMI) cell culture media and plated to the appropriate density for the assay.
as §4, §5

The mark [7] stands for this setting: day 18 post immunization, 0.1% then 1% ShK-186 topically.
Where [8] appears, read: whole blood treated with ShK-186 one hour prior to thapsigargin, supernatant 48 hours after stimulation.
[9] abbreviates: whole blood, thapsigargin stimulation.
[10] abbreviates: PBMCs treated with ShK-186 one hour prior to thapsigargin, supernatant 48 hours after stimulation.
[11] abbreviates: PBMCs, thapsigargin stimulation.

Entries after “also recorded” stand apart in the source; their conditions may differ.

Consider “(L-PhosphoTyr)-AEEAc-RSCIDTIPKSRCTAFQCKHSMKYRLSFCRKTCGTC-amide [ShK-186]”, for which the “expression of cytokines (IFN-γ, IL-2, IL-4, IL-10, IL-17, IL-21, IL-22, perforin, granzyme B)” value in data set [1] is listed as “significantly reduces”. For the same substance, the “ShK-186 in plasma (systemic exposure)” value in data set [2] (0.5% ShK-186 topically to right eye three times per day for 21 days) was “no detectable and not”. The “ShK-186 concentration in aqueous fluid of the treated right eye (RE)” value in data set [2] (10 μL of 0.5% ShK-186 in P6N topically three times per day for 21 days, samples at 21 days) is reported as “significant concentrations”. The “ShK-186 in samples from the untreated left eye (LE)” value in data set [2] (right eye dosed 0.5% ShK-186 three times per day for 21 days, left eye vehicle) was “no detectable”. In addition, in data set [3] (ShK-186 topical administration versus vehicle (P6N), FIG. 4B), the gross pathology result is “reduced”. Further, the “composite clinical score of animal 4-8” value in data set [3] (day 18 post immunization, 0.1% ShK-186 for 9 days then 1% for 10 days topically, vehicle animal 3-2 scored 13) amounted to 0. For the same substance, in data set [3] (setting [7]), the “cells in the anterior chamber score of animal 4-8” value amounted to 0; the “iris vessels and structure score of animal 4-8” value is given as 0; the “protein in the anterior chamber (flare) score of animal 4-8” value is given as 0; the “pupil score of animal 4-8” value is on record as 0. Besides, in data set [3] (eyes collected day 19 post immunization, H&E sections, FIG. 4C), the histopathology result was “reduces”. For the same substance, the “composite clinical score versus vehicle” value in data set [3] (slit lamp, days 11, 13, 15, 18 post induction, topical three times daily 0.1% day 0-8 and 1% ShK-186 day 9-18, N=8 rats/16 eyes) is on record as “significantly lower”. In addition, in data set [3] (three times daily 0.1% ShK-186 followed by 1% ShK-186 for 10 days, vehicle eye scored 2), the “histopathology score of an eye from a treated animal” value was 0. The “ex vivo proliferation of T cells or macrophages” value in data set [4] is “significantly reduces”. In data set [5] (setting [8]), the “suppression of IFN-γ level” value was “dose-dependent manner; also recorded: suppressed”, the “suppression of IL-2 level” value was “dose-dependent manner; also recorded: suppressed”, the “suppression of IL-4 level” value is reported as “dose-dependent manner; also recorded: suppressed” and the “suppression of IL-17 level” value is “dose-dependent manner; also recorded: suppressed”. Also, in data set [5] (setting [9]), the “IC50, IFN-γ suppression” value is recorded as “picomolar range”; the “IC50, IL-2 suppression” value is “picomolar range”; the “IC50, IL-4 suppression” value was “picomolar range”; the “IC50, IL-17 suppression” value is listed as “picomolar range”. In addition, in data set [6] (setting [10]), the “suppression of IFN-γ level” value is “suppressed; also recorded: dose-dependent manner”, the “suppression of IL-2 level” value was “suppressed; also recorded: dose-dependent manner”, the “suppression of IL-4 level” value is recorded as “suppressed; also recorded: dose-dependent manner” and the “suppression of IL-17 level” value is on record as “suppressed; also recorded: dose-dependent manner”. Further, in data set [6] (setting [11]), the “IC50, IFN-γ suppression” value was “picomolar range”; the “IC50, IL-2 suppression” value is “picomolar range”; the “IC50, IL-4 suppression” value was “picomolar range”; the “IC50, IL-17 suppression” value is on record as “picomolar range”.
“(L-Tyr)-AEEAc-RSCIDTIPKSRCTAFQCKHSMKYRLSFCRKTCGTC-amide [ShK-198]”: in data set [3] (slit lamp day 13 post induction, 1% ShK-198 topically three times daily versus P6N vehicle, N=10 rats/20 eyes), the “clinical score (cells in the anterior chamber; protein in the anterior chamber or flare)” value is “reduces”.
